For data set [1], the system named is Apis mellifera. The settings on record: acute, mortality.
The subject of data set [2] is Anas platyrhynchos. As to conditions: reproductive.
Data set [3] relates to Gammaridae. As to conditions: chronic/long-term; duration: 28 days.
For data set [4], the system named is Rattus norvegicus.
The test system of data set [5] is Pontoscolex corethrurus.
Data set [6] has as its system Pimephales promelas. As to conditions: chronic/long-term; duration: 32 days; growth.
Data set [7] concerns Cyprinus carpio. As to conditions: acute; duration: 96 hours; mortality.
Data set [8] relates to Colinus virginianus. As to conditions: acute, oral, mortality.
Data set [9] concerns Neomysis kadiakensis.

≈ marks a conversion by molar mass, not a printed value.

For the compound `Cn1cc(C(=O)Nc2cccc3c2[C@@H]2CC[C@H]3C2=C(Cl)Cl)c(C(F)F)n1` [Benzovindiflupyr], the LD50 in data set [1] (dermal) was over 100 µg/piece; in [1] (oral, unspecified) it was over 109 µg/piece; in data set [4] (acute, mortality), 55 mg/kg; in data set [8], 1320 mg/kg. The NOEC in data set [2] worked out at 25 mg/kg-day; in [3] it was 4.1 mg/kg; in data set [5] (chronic/long-term, duration: 8 weeks), 7.81 mg/kg; in [6], 0.00095 mg/L; in data set [9] (chronic/long-term, duration: 28 days, reproduction), 0.0074 mg/L. Moreover, the no-observed-adverse-effect level (NOAEL) in data set [4] (acute, neurology) stood at 10 mg/kg-day; in data set [4] (chronic), 6.8 mg/kg-day; in data set [4] (chronic, duration: 2 years, histopathology: nonneoplastic), 4.88 mg/kg-day; in data set [4] (reproduction developmental, M/F, reproduction), 6.8 mg/kg-day; in data set [4] (subchronic, duration: 90 days, oral, organ weight), 7.6 mg/kg-day. Besides, the LC50 in data set [5] (acute, duration: 14 days, mortality) was 406 mg/kg; in data set [7], 0.0035 µg/mL (≈ 0.00879 µM); in data set [8] (diet), over 1170 mg/kg-day; in [9] (acute, duration: 96 hours, mortality), 0.056 µg/mL (≈ 0.141 µM).

One may read the NOAEL as the highest tested level that showed no adverse finding.

The record behind these values is EPA's ToxValDB 9.5 (doi:10.2903/j.efsa.2015.4043).
